The target in data set [1] is T1, Bradykinin receptor (Cavia porcellus, UniProt O70526).
T1 construct: from tissue; host or cells: guinea pig ileum, crude membrane preparation
T1 sequence (O70526 1-372): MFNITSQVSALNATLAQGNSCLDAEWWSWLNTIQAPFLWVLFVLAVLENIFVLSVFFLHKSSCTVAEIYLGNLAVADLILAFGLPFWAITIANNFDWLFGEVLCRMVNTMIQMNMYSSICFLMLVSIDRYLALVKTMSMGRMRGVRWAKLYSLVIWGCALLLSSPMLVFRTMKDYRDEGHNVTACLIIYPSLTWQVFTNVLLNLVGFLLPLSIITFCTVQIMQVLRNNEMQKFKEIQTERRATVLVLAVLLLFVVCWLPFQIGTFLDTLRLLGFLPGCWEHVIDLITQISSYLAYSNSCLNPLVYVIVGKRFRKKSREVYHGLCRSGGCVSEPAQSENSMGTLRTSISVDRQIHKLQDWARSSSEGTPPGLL
In words: 3H-Bradykinin receptor binding (crude guinea pig ileum membrane). The conditions noted are these: crude ileum membrane of male Hartly strain guinea pigs; 3H-Bradykinin 0.06 nM; room temperature, 60 minutes; read-out: Inhibition of 3H-Bradykinin binding IC50. Here is the method: ^3H-Bradykinin receptor binding
(a) Crude ileum membrane preparation
Male Hartly strain guinea pigs were sacrificed by decapitation. The ileum was removed and homogenized in buffer (50 mM trimethylaminoethanesulfonic acid (TES), 1 mM 1,10-phenanthroline pH 6.8). The homogenate was centrifuged (1000×g, 20 minutes) to remove tissue clumps and the supernatant was centrifuges (100,000×g, 60 minutes) to yield a pellet. The pellet was resuspended in buffer (50 mM TES, 1 mM 1,10-phenanthroline, 140 mg/l bacitracin, 1 mM dithiothreiol, 0.1% bovine serum albumin pH 6.8) and homogenized with a glass-teflon homogenizer to yield suspension which was referred to as crude membrane suspension. The obtained membrane suspension was stored at −80° C. until use.
(b) ^3H-Bradykinin binding to the membrane
The frozen crude membrane suspension was thawed. In binding assays, ^3H-Bradykinin (0.06 nM) and the test compound were incubated with 50 μl of the membrane suspension at room temperature for 60 minutes in a final volume of 250 μl. Separation of receptor-bound from free ^3H-Bradykinin is achieved by immediate filtration under vacuum and washed three times with 5 ml of ice-cold buffer (50 mM Tris-HCl pH 7.5). Non-specific binding was defined as binding in the presence of 0.1 μM Bradykinin. The radioactivity retained on rinsed filters was determined by a liquid-scintillation counter.

The structures appear in SMILES notation. Where a name gives a salt, the structure may show the parent alone.

Take `CNC(=O)c1ccc(/C=C/C(=O)NCc2ccccc2-c2ccc(C)c(COc3cccc4ccc(C)nc34)c2C)cc1` [40-(6)]: the half-maximal inhibitory concentration (IC50) in data set [1] was 2.3 nM.

Take `CNC(=O)c1ccc(C=CC(=O)NC/C=C\c2ccc(Cl)c(COc3cccc4ccc(C)nc34)c2Cl)cc1OC` [50-(1) (hydrochloride), 8-[2,6-Dichloro-3-[(Z)-3-[3-methoxy-4-(methylcarbamoyl)cinnamoylamino]-1-propenyl]benzyloxy]-2-methylquinoline]: in data set [1], the half-maximal inhibitory concentration (IC50) stood at 7.4 nM.

Regarding `CCOC(=O)c1ccc(/C=C/C(=O)NCc2cccn2-c2ccc(Cl)c(COc3cccc4ccc(C)nc34)c2Cl)cn1` [16-(1), 1-[2,4-Dichloro-3-(2-methylquinolin-8-yloxymethyl)phenyl]-2-[(E)-3-(6-ethoxycarbonylpyridin-3-yl)acryloylaminomethyl]pyrrole], the half-inhibitory concentration (IC50) in data set [1] came to 3.3 nM.

As for `Cc1nc2c(OCc3c(Cl)ccc(-n4cccc4CNC(=O)/C=C/c4ccc(/C=C/c5ccncc5)nc4)c3Cl)cccn2c1Br` [23-(3) (trihydrochloride), 1-(3-(3-bromo-2-methylimidazo[1,2-a]pyridin-8-yloxymethyl)-2,4-dichlorophenyl]-2-[(E)-3-[6-[(E)-2-(pyridin-4-yl)vinyl]pyridin-3-yl]acryloylaminomethyl]pyrrole], in data set [1], the half-inhibitory concentration (IC50) is 4.3 nM.

Molecule `Cc1ccc2cccc(OCc3c(Cl)ccc(C(=O)N4CCNCC4)c3Cl)c2n1.Cl.Cl` came in with a melting point of 195 to 197 °C.

As for `COc1nc2c(OCc3c(Cl)ccc(-n4cccc4CNC(=O)/C=C/c4ccc(NC(C)=O)nc4)c3Cl)cccc2n1C` [Example 21, 2-[(E)-3-(6-acetamidopyridin-3-yl)acryloylaminomethyl]-1-[2,4-dichloro-3-(2-methoxy-1-methyl-1H-benzimidazol-4-yloxymethyl)phenyl]pyrrole], the melting point was in the range of 233 to 240 °C.

On to `CNC(=O)c1ccc(C=CC(=O)NC/C=C\c2ccc(Cl)c(COc3cccc4ccc(C)nc34)c2Cl)cc1OC` (as salt: hydrochloride) [50-(1) (hydrochloride), 8-[2,6-Dichloro-3-[(Z)-3-[3-methoxy-4-(methylcarbamoyl)cinnamoylamino]-1-propenyl]benzyloxy]-2-methylquinoline], for which the melting point lay in the range of 222 to 225 °C.

In the case of `Cc1ccc2cccc(OCc3c(Cl)ccc(-n4cccc4CNC(=O)/C=C/c4ccc(/C=C/c5ccncc5)nc4)c3Cl)c2n1` [15 (trihydrochloride), 1-[2,4-Dichloro-3-(2-methylquinolin-8-yloxymethyl)phenyl]-2-[(E)-3-[6-[(E)-2-(pyridin-4-yl)vinyl]pyridin-3-yl]acryloylaminomethyl]pyrrole], in data set [1], the 50% inhibitory concentration (IC50) worked out at 2.6 nM.

For the molecule `CNC(=O)c1ccc(C=CC(=O)NCc2sccc2-c2ccc(C)c(COc3cccc4ccc(C)nc34)c2C)cc1` [45-(6) (hydrochloride), 3-[2,4-Dimethyl-3-(2-methylquinolin-8-yloxymethyl)-phenyl]-2-[4-(methylcarbamoyl)-cinnamoylaminomethyl]thiophene], the concentration for half-maximal inhibition (IC50) in data set [1] turned out to be 2.8 nM.

With `CNC(=O)c1ccc(/C=C/C(=O)NCc2cccn2-c2ccc(Cl)c(COc3cccc4c(-n5ccnc5)cc(C)nc34)c2Cl)cc1` [33 (dihydrochloride)], the half-inhibitory concentration (IC50) in data set [1] came out at 3.2 nM.

These data come from patent US6344462B1, “Heterocyclic compounds as bradykinin antagonists” (Fujisawa Pharmaceutical Co., Ltd., priority 1995, dated 2002).
